According to US20080139664A1, “ANTI-GLYCATION AGENTS FOR PREVENTING AGE-, DIABETES-, AND SMOKING-RELATED COMPLICATIONS” (NATIONAL RESEARCH COUNCIL OF CANADA, priority 2001, published 2008):
Counter-ions that a name gives are not always drawn. Like-named read-outs stand apart in the source and are kept apart here.

How the values were obtained:
[1] = system: bovine serum albumin (BSA); assay: Fluorescamine assay of free primary amino groups of BSA incubated with D-ribose; format: biochemical; settings: for Unreacted amino group: free primary amino group on BSA after 5 days at 37° C., agent at 16.8 times IC50, 64% without agent
Method: Fluorescamine assay (Yeboah F. et al., J. Agric. Food Chem. 48, 2766-2774 (2000)) was performed on incubated mixtures of BSA and D-ribose, with or without the identified anti-glycation agents. The mixtures contained BSA (0.075 mM protein concentration or 4.53 mM of Lys residue concentration) and D-ribose (50 mM). […] The fluorescamine assay determines the number of free lysine residues of BSA. In this experiment, the final volume of the incubation mixtures was 10 mL and the incubation time was 5 days at 37° C. Prior to the fluorescamine assay, the proteins were isolated by reverse phase HPLC. The protein content was determined using the Bio-Rad protein determination reagent (Bradford method). The fluorescamine assay was done in triplicate.

[2] = system: bovine serum albumin (BSA)
lysozyme = assay: ESI-MS of lysozyme glycoforms after incubation with D-ribose; settings: 37° C., 5 days; for Peak area as % of total area of all glycoforms, 14,569: lysozyme + 2D-ribose − 2H2O (14,569 Da); for Peak area as % of total area of all glycoforms, 14,551: lysozyme + 2D-ribose − 3H2O (14,551 Da); for Peak area as % of total area of all glycoforms, 14,533: lysozyme + 2D-ribose − 5H2O (14,533 Da); for Peak area as % of total area of all glycoforms, 14,515: lysozyme + 2D-ribose − 6H2O (14,515 Da); for Peak area as % of total area of all glycoforms, 14,419: lysozyme + D-ribose − 2H2O (14,419 Da); for Peak area as % of total area of all glycoforms, 14,401: lysozyme + D-ribose − 3H2O (14,401 Da); for Peak area as % of total area of all glycoforms, 14,437: lysozyme + D-ribose − H2O (14,437 Da); for Peak area as % of total area of all glycoforms, 14,496: lysozyme + D-ribose − H2O with one carboxymethylated Lys residue (14,496 Da); for Peak area as % of total area of all glycoforms, 14,364: lysozyme with one carboxymethylated Lys residue (14,364 Da); for Peak area as % of total area of all glycoforms, 14,305: unmodified lysozyme (14,305 Da);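 on all read-outs here: lysozyme incubated with D-ribose, with or without anti-glycation agents, then separated by reversed-phase HPLC and analysed by electrospray mass spectrometry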
Method: The effect of anti-glycation agents on the accumulation of glycated forms (glycoforms) of protein was evaluated by using electrospray mass spectrometry (ESI-MS). As the molecular mass of BSA was too large to monitor the small mass changes of its glycoforms, lysozyme was incubated with D-ribose and anti-glycants. Lysozyme and its glycoforms were isolated by RP-HPLC and analyzed by mass spectrometry.
Samples of lysozyme (0.756 mM; 4.54 mM of Lys residues) and D-ribose (50 mM) were incubated in the presence and absence of the selected anti-glycation agents at 37° C. for 5 days and subjected to electrospray mass spectrometry (ESI-MS) in order to characterize the protein intermediates as well as carboxymethylated lysozyme. Prior to MS measurements, the proteins were isolated by reversed phase-HPLC and were semi-dried by freeze drying.

[3] = system: bovine serum albumin (BSA); assay: Maillard fluorescence-based assay of AGEs formation, IC50 determination (BSA + D-ribose)
[4] = inhibition of Maillard fluorescence development, 0.075 mM BSA, 50 mM D-ribose, 37° C., 5 days

Oc1ccc(CC2NCCc3cc(O)c(O)cc32)cc1O (racemic) [(±)-Tetrahydropapaveroline]
Unreacted amino group [1]: 51% | IC50 [2]: 90 µM | Peak area as % of total area of all glycoforms, 14,569 (lysozyme): 2.3% | Peak area as % of total area of all glycoforms, 14,551 (lysozyme): 0.7% | Peak area as % of total area of all glycoforms, 14,533 (lysozyme): 0.8% | Peak area as % of total area of all glycoforms, 14,515 (lysozyme): 0.0% | Peak area as % of total area of all glycoforms, 14,419 (lysozyme): 2.8% | Peak area as % of total area of all glycoforms, 14,401 (lysozyme): 2.1% | Peak area as % of total area of all glycoforms, 14,437 (lysozyme): 17.6% | Peak area as % of total area of all glycoforms, 14,496 (lysozyme): 0.9% | Peak area as % of total area of all glycoforms, 14,364 (lysozyme): 3.9% | Peak area as % of total area of all glycoforms, 14,305 (lysozyme): 68.9%

Nc1ncc([N+](=O)[O-])cn1 [2-Amino-5-nitropyrimidine]
Peak area as % of total area of all glycoforms, 14,569 (lysozyme): 4.7% | Peak area as % of total area of all glycoforms, 14,551 (lysozyme): 3.8% | Peak area as % of total area of all glycoforms, 14,533 (lysozyme): 2.0% | Peak area as % of total area of all glycoforms, 14,515 (lysozyme): 0.9% | Peak area as % of total area of all glycoforms, 14,419 (lysozyme): 7.7% | Peak area as % of total area of all glycoforms, 14,401 (lysozyme): 0.0% | Peak area as % of total area of all glycoforms, 14,437 (lysozyme): 23.0% | Peak area as % of total area of all glycoforms, 14,496 (lysozyme): 0.0% | Peak area as % of total area of all glycoforms, 14,364 (lysozyme): 3.6% | Peak area as % of total area of all glycoforms, 14,305 (lysozyme): 52.9% | IC50 [3, 4]: 810 µM

O=Cc1ccc(O)c(O)c1 [3,4-Dihydroxybenzaldehyde]
Unreacted amino group [1]: 32% | effect on protection of amino groups of BSA ([1]; in words): seem to accelerate the modification of the amino groups | IC50 [2]: 120 µM | Peak area as % of total area of all glycoforms, 14,569 (lysozyme): 1.8% | Peak area as % of total area of all glycoforms, 14,551 (lysozyme): 3.0% | Peak area as % of total area of all glycoforms, 14,533 (lysozyme): 0.0% | Peak area as % of total area of all glycoforms, 14,515 (lysozyme): 1.2% | Peak area as % of total area of all glycoforms, 14,419 (lysozyme): 3.1% | Peak area as % of total area of all glycoforms, 14,401 (lysozyme): 0.0% | Peak area as % of total area of all glycoforms, 14,437 (lysozyme): 10.9% | Peak area as % of total area of all glycoforms, 14,496 (lysozyme): 1.5% | Peak area as % of total area of all glycoforms, 14,364 (lysozyme): 0.0% | Peak area as % of total area of all glycoforms, 14,305 (lysozyme): 78.6%

O=c1cc(-c2ccc(O)c(O)c2)oc2ccc(O)cc12 [6,3′,4′-Trihydroxyflavone]
Peak area as % of total area of all glycoforms, 14,569 (lysozyme): 4.0% | Peak area as % of total area of all glycoforms, 14,551 (lysozyme): 4.0% | Peak area as % of total area of all glycoforms, 14,533 (lysozyme): 1.6% | Peak area as % of total area of all glycoforms, 14,515 (lysozyme): 0.6% | Peak area as % of total area of all glycoforms, 14,419 (lysozyme): 8.8% | Peak area as % of total area of all glycoforms, 14,401 (lysozyme): 0.3% | Peak area as % of total area of all glycoforms, 14,437 (lysozyme): 21.5% | Peak area as % of total area of all glycoforms, 14,496 (lysozyme): 0.0% | Peak area as % of total area of all glycoforms, 14,364 (lysozyme): 2.0% | Peak area as % of total area of all glycoforms, 14,305 (lysozyme): 56.4% | IC50 [3, 4]: > 4000 µM

CC[C@@]1(O)C[C@H](O[C@H]2C[C@H](N(C)C)[C@H](O[C@H]3C[C@H](O)[C@H](O[C@H]4CCC(=O)[C@H](C)O4)[C@H](C)O3)[C@H](C)O2)c2c(cc3c(c2O)C(=O)c2c(O)cccc2C3=O)[C@H]1C(=O)OC [Aclarubicin]
IC50 [3, 4]: 2500 µM

NC(=O)c1ccc([N+](=O)[O-])cc1Cl [Aklomide]
IC50 [3, 4]: 350 µM

CC(=O)Nc1ncc([N+](=O)[O-])s1 [Aminitrozole]
IC50 [3, 4]: 82 µM

COc1ccc(O)c(C(C)(C)C)c1 [BHA]
IC50 [3, 4]: > 4000 µM

COc1ccc(-c2coc3cc(O)cc(O)c3c2=O)cc1 [Biochanin A]
IC50 [3, 4]: 290 µM

Cc1cc2c(OCC(CNC(C)(C)C)OC(=O)c3ccccc3)cccc2[nH]1 (centres unmarked) [Bopindolol]
IC50 [3, 4]: 170 µM

CN1CC(O)C2=C/C(=N/NC(N)=O)C(=O)C=C21 (centres unmarked) [Carbazochrome]
IC50 [3, 4]: 3500 µM

CCCCCCCCCCCCCCCC(=O)OC[C@@H](NC(=O)C(Cl)Cl)[C@H](O)c1ccc([N+](=O)[O-])cc1 [Chloramphenicol palmitate]
IC50 [3, 4]: > 4000 µM

Oc1ccc(Cl)c2cccnc12 [Cloxiquine]
IC50 [3, 4]: 440 µM

C[C@H](N)[C@H](O)c1ccc(O)c(O)c1 [Corbadrine]
IC50 [3, 4]: 52 µM

O=C1CN(/N=C/c2ccc(-c3ccc([N+](=O)[O-])cc3)o2)C(O)=N1 [Dantrolene]
IC50 [3, 4]: 100 µM

O=c1c2ccccc2[se]n1-c1ccccc1 [Ebselen]
IC50 [3, 4]: > 4000 µM

Cc1cc(-c2ccc(/N=N/c3ccc4c(S(=O)(=O)O)cc(S(=O)(=O)O)c(N)c4c3O)c(C)c2)ccc1/N=N/c1ccc2c(S(=O)(=O)O)cc(S(=O)(=O)O)c(N)c2c1O [Evans blue]
IC50 [3, 4]: 3700 µM

O=c1c(-c2ccc(O)cc2)coc2cc(O)cc(O)c12 [Genistein]
IC50 [3, 4]: 450 µM

Cc1cc2c(C(C)C)c(O)c(O)c(C=O)c2c(O)c1-c1c(C)cc2c(C(C)C)c(O)c(O)c(C=O)c2c1O [Gossypol]
IC50 [3, 4]: 110 µM

CCOC(=O)[C@@H](N)CS [L-Cysteine ethyl ester]
IC50 [3, 4]: > 4000 µM

C=CCN1CC[C@]23c4c5ccc(O)c4O[C@H]2/C(=N/N=C2\CC[C@@]4(O)[C@H]6Cc7ccc(O)c8c7[C@@]4(CCN6CC=C)[C@H]2O8)CC[C@@]3(O)[C@H]1C5 [Naloxonazine]
IC50 [3, 4]: 1700 µM

NC(=O)N/N=C/c1ccc([N+](=O)[O-])o1 [Nitrofurazone]
Peak area as % of total area of all glycoforms, 14,569 (lysozyme): 4.2% | Peak area as % of total area of all glycoforms, 14,551 (lysozyme): 2.8% | Peak area as % of total area of all glycoforms, 14,533 (lysozyme): 2.4% | Peak area as % of total area of all glycoforms, 14,515 (lysozyme): 1.1% | Peak area as % of total area of all glycoforms, 14,419 (lysozyme): 5.8% | Peak area as % of total area of all glycoforms, 14,401 (lysozyme): 0.0% | Peak area as % of total area of all glycoforms, 14,437 (lysozyme): 21.4% | Peak area as % of total area of all glycoforms, 14,496 (lysozyme): 0.0% | Peak area as % of total area of all glycoforms, 14,364 (lysozyme): 1.6% | Peak area as % of total area of all glycoforms, 14,305 (lysozyme): 60.8% | maximum percentage of the inhibition ([3]; Maillard fluorescence, listed if significantly lower than 100%): 50%) | IC50 [3, 4]: 46 µM

CC(CCc1ccccc1)NC(C)C(O)c1ccc(O)cc1 (centres unmarked) [Nylidrin]
IC50 [3, 4]: 1800 µM

O=C1CCN(c2ccccc2)N1 [Phenidone]
IC50 [3, 4]: 1300 µM

O=c1c(O)c(-c2ccc(O)c(O)c2)oc2cc(O)cc(O)c12 [Quercetin]
IC50 [3, 4]: 130 µM

Cn1c([N+](=O)[O-])cnc1COC(N)=O [Ronidazole]
IC50 [3, 4]: 950 µM

O=[N+]([O-])c1cc([As](=O)(O)O)ccc1O [Roxarsone]
Peak area as % of total area of all glycoforms, 14,569 (lysozyme): 5.1% | Peak area as % of total area of all glycoforms, 14,551 (lysozyme): 1.3% | Peak area as % of total area of all glycoforms, 14,533 (lysozyme): 1.2% | Peak area as % of total area of all glycoforms, 14,515 (lysozyme): 0.0% | Peak area as % of total area of all glycoforms, 14,419 (lysozyme): 3.1% | Peak area as % of total area of all glycoforms, 14,401 (lysozyme): 0.0% | Peak area as % of total area of all glycoforms, 14,437 (lysozyme): 27.0% | Peak area as % of total area of all glycoforms, 14,496 (lysozyme): 0.0% | Peak area as % of total area of all glycoforms, 14,364 (lysozyme): 0.0% | Peak area as % of total area of all glycoforms, 14,305 (lysozyme): 62.4% | IC50 [3, 4]: 230 µM

COC1=C[C@@H]2[C@@H]3Cc4ccc(OC)c(O)c4[C@]2(CCN3C)CC1=O [Sinomenine]
IC50 [3, 4]: > 4000 µM

O=C1c2c(O)cc(O)cc2O[C@H](c2ccc(O)c(O)c2)[C@H]1O [Taxifolin]
IC50 [3, 4]: 100 µM

Cc1c(C)c2c(c(C)c1O)CCC(C)(C(=O)O)O2 (centres unmarked) [Trolox C]
IC50 [3, 4]: 470 µM

O=[N+]([O-])c1ccc(O)cc1 [p-Nitrophenol]
IC50 [3, 4]: > 4000 µM

CC(CCc1ccccc1)NCC(=O)c1ccc(O)c(O)c1 (stereo not drawn) [α-(1-Methyl-3-phenyl-propylamino)-3,4-dihydroxyacetophenone hydrochloride]
IC50 [3, 4]: 890 µM

D,L-Epinephrine
IC50 [3]: 15 µM

Pyrithioxin
IC50 [3, 4]: > 4000 µM
